What all share (type): in vivo
Assay [1] concerns Nezara viridula. The experiment in a line: Nezara viridula spray test (barley plants). Conditions: 96 h, application rate 500 g/ha, larvae, after 4 days, 100% = all shield bugs killed, read-out: efficacy in %. From the text:
Nezara viridula—Spray Test Solvent: 78.0 parts by weight of acetone • • 1.5 parts by weight of dimethylformamide Emulsifier: alkylaryl polyglycol ether An appropriate active ingredient formulation is produced by dissolving 1 part by weight of active ingredient with the stated parts by weight of solvent and making the solution up to the desired concentration with water containing an emulsifier concentration of 1000 ppm. Further test concentrations are produced by diluting the formulation with emulsifier-containing water. Barley plants (Hordeum vulgare) are sprayed with an active ingredient formulation of the desired concentration and are infected with larvae of the Southern green shield bug (Nezara viridula). After 4 days, efficacy in % is determined. 100% means that all of the shield bugs have been killed; 0% means that none of the shield bugs have been killed.

Assay [2] deals with Diabrotica balteata. The experiment in a line: Diabrotica balteata spray test (germinated wheat grains). The conditions noted are these: 168 h, application rate 100 g/ha (=32 μg/cavity), after 7 days, beetle larvae on wheat, 100% = all wheat plants grown as in untreated, uninfected control, read-out: efficacy in %. The source says: Diabrotica Balteata—Spray Test Solvent: 78 parts by weight of acetone • • 1.5 parts by weight of dimethylformamide Emulsifier: alkylaryl polyglycol ether An appropriate active ingredient formulation is produced by dissolving 1 part by weight of active ingredient with the stated parts by weight of solvent and making the solution up to the desired concentration with water containing an emulsifier concentration of 1000 ppm. Further test concentrations are produced by diluting the formulation with emulsifier-containing water. Pre-swollen wheat grains (Triticum aestivum) are incubated in a multiwell plate filled with agar and a little water for one day (5 seed grains per cavity). The germinated wheat grains are sprayed with an active ingredient formulation of the desired concentration. Subsequently, each cavity is infected with 10-20 beetle larvae of Diabrotica balteata. After 7 days, efficacy in % is determined. 100% means that all wheat plants have grown as in the untreated, uninfected control; 0% means that no wheat plant has grown.

For assay [3], the system named is Spodoptera frugiperda. The experiment in a line: Spodoptera frugiperda spray test (maize leaf disks). The conditions noted are these: foliar, 168 h, application rate 100 g/ha, caterpillars, after 7 days, 100% = all caterpillars killed, read-out: efficacy in %. From the text:
Spodoptera frugiuerda—Spray Test
Solvent: 78.0 parts by weight of acetone • • 1.5 parts by weight of dimethylformamide
Emulsifier: alkylaryl polyglycol ether
An appropriate active ingredient formulation is produced by dissolving 1 part by weight of active ingredient with the stated parts by weight of solvent and making the solution up to the desired concentration with water containing an emulsifier concentration of 1000 ppm. Further test concentrations are produced by diluting the formulation with emulsifier-containing water.
Leaf disks of maize (Zea mays) are sprayed with an active ingredient formulation of the desired concentration and, after drying, populated with caterpillars of the fall armyworm (Spodopterafrugiperda).
After 7 days, efficacy in % is determined. 100% means that all of the caterpillars have been killed; 0% means that none of the caterpillars have been killed.

With `CCS(=O)(=O)c1c(-c2nc3cc4c(cc3n2C)OC(F)(F)C(F)(F)O4)nc(-c2ccc(C3(F)CC3)cc2)n1C` [Example I-11, 2-{5-(Ethylsulfonyl)-2-[4-(1-fluorocyclopropyl)phenyl]-1-methyl-1H-imidazol-4-yl}-6,6,7,7-tetrafluoro-1-methyl-6,7-dihydro-1H-[1,4]dioxino[2,3-f]benzimidazole], the pest or weed control at 500 g/ha in assay [1] was determined as 100%. Also, the pest or weed control at 100 g/ha in assay [2] and in assay [3] was 100% each time.

On to `CCS(=O)(=O)c1c(-c2nc3cc4c(cc3n2C)OC(F)(F)C(F)(F)O4)nc(-c2cccc(F)c2)n1C` [Example I-14, 2-[5-(Ethylsulfonyl)-2-(3-fluorophenyl)-1-methyl-1H-imidazol-4-yl]-6,6,7,7-tetrafluoro-1-methyl-6,7-dihydro-1H-[1,4]dioxino[2,3-f]benzimidazole], for which, in assay [1], the pest or weed control at 500 g/ha was determined as 90%. In addition, the pest or weed control at 100 g/ha in assay [2] and in assay [3] was 100% each time.

With `CCS(=O)(=O)c1c(-c2nc3cc4c(cc3n2C)OC(F)(F)C(F)(F)O4)nc(-c2ccc(Cl)s2)n1C` [Example I-19, 2-[2-(5-Chloro-2-thienyl)-5-(ethylsulfonyl)-1-methyl-1H-imidazol-4-yl]-6,6,7,7-tetrafluoro-1-methyl-6,7-dihydro-1H-[1,4]dioxino[2,3-f]benzimidazole], the pest or weed control at 500 g/ha in assay [1] turned out to be 100%. The pest or weed control at 100 g/ha in assay [3] was determined as 100%.

In the case of `CCS(=O)(=O)c1c(-c2nc3cc4c(cc3n2C)OC(F)(F)C(F)(F)O4)nc(-c2ccc(F)cc2)n1C` [Example I-5, 2-[5-(Ethylsulfonyl)-2-(4-fluorophenyl)-1-methyl-1H-imidazol-4-yl]-6,6,7,7-tetrafluoro-1-methyl-6,7-dihydro-1H-[1,4]dioxino[2,3-f]benzimidazole], the pest or weed control at 100 g/ha in assay [2] and in assay [3] was 100% in each case.

On to `CCS(=O)(=O)c1c(-c2nc3cc4c(cc3n2C)OC(F)(F)C(F)(F)O4)nc(-c2ccc(Cl)cn2)n1C` [Example I-31, 2-[2-(5-Chloropyridin-2-yl)-5-(ethylsulfonyl)-1-methyl-1H-imidazol-4-yl]-6,6,7,7-tetrafluoro-1-methyl-6,7-dihydro-1H-[1,4]dioxino[2,3-f]benzimidazole], for which the pest or weed control at 100 g/ha in assay [3] came out at 100%.

As to `CCS(=O)(=O)c1c(-c2nc3cc4c(cc3n2C)OC(F)(F)C(F)(F)O4)nc(-c2cccc(C3(F)CC3)c2)n1C` [Example I-20, 2-{5-(Ethylsulfonyl)-2-[3-(1-fluorocyclopropyl)phenyl]-1-methyl-1H-imidazol-4-yl}-6,6,7,7-tetrafluoro-1-methyl-6,7-dihydro-1H-[1,4]dioxino[2,3-f]benzimidazole], the pest or weed control at 500 g/ha in assay [1] worked out at 90%. Besides, the pest or weed control at 100 g/ha in assay [2] and in assay [3] was 100% throughout.

As to `CCS(=N)(=O)c1c(-c2nc3cc4c(cc3n2C)OC(F)(F)C(F)(F)O4)nc(-c2ccc(C3(C#N)CC3)cc2)n1C` (stereo not shown) [Example I-39], in assay [3], the pest or weed control at 100 g/ha stood at 100%.

For the compound `CCS(=O)(=O)c1c(-c2nc3cc4c(cc3[nH]2)OC(F)(F)C(F)(F)O4)nc(Br)n1C` [Example I-2, 2-[2-Bromo-5-(ethylsulfonyl)-1-methyl-1H-imidazol-4-yl]-6,6,7,7-tetrafluoro-6,7-dihydro-1H-[1,4]dioxino[2,3-f]benzimidazole], the pest or weed control at 100 g/ha in assay [2] and in assay [3] was 100% in each case.

`CCS(=O)(=O)c1c(-c2nc3cc4c(cc3n2C)OC(F)(F)C(F)(F)O4)nc(-c2cccc(Cl)c2)n1C` [Example I-13, 2-[2-(3-Chlorophenyl)-5-(ethylsulfonyl)-1-methyl-1H-imidazol-4-yl]-6,6,7,7-tetrafluoro-1-methyl-6,7-dihydro-1H-[1,4]dioxino[2,3-f]benzimidazole]: the pest or weed control at 100 g/ha in assay [2] and in assay [3] was 100% throughout.

In the case of `CCS(=O)(=O)c1c(-c2nc3cc4c(cc3n2C)OC(F)(F)C(F)(F)O4)nc(-c2cccc(Br)c2)n1C` [Example I-12, 2-[2-(3-Bromophenyl)-5-(ethylsulfonyl)-1-methyl-1H-imidazol-4-yl]-6,6,7,7-tetrafluoro-1-methyl-6,7-dihydro-1H-[1,4]dioxino[2,3-f]benzimidazole], the pest or weed control at 100 g/ha in assay [2] and in assay [3] was 100% each time.

As for `CCS(=O)(=O)c1c(-c2nc3cc4c(cc3n2C)OC(F)(F)C(F)(F)O4)nc(-c2cccc(C3(C#N)CC3)c2)n1C` [Example I-36], the pest or weed control at 500 g/ha in assay [1] stood at 90%. The pest or weed control at 100 g/ha in assay [2] and in assay [3] was 100% in each case.

For `CCS(=O)(=O)c1c(-c2nc3cc4c(cc3n2C)OC(F)(F)C(F)(F)O4)nc(-c2ccc(C(F)(F)F)cc2)n1C` [Example I-15, 2-{5-(Ethylsulfonyl)-1-methyl-2-[4-(trifluoromethyl)phenyl]-1H-imidazol-4-yl}-6,6,7,7-tetrafluoro-1-methyl-6,7-dihydro-1H-[1,4]dioxino[2,3-f]benzimidazole], in assay [1], the pest or weed control at 500 g/ha was 100%. In addition, the pest or weed control at 100 g/ha in assay [2] and in assay [3] was 100% in each case.

In the case of `CCS(=O)(=O)c1c(-c2nc3cc4c(cc3n2C)OC(F)(F)C(F)(F)O4)nc(-c2ccc(Br)cn2)n1C` [Example I-24, 2-[2-(5-Bromopyridin-2-yl)-5-(ethylsulfonyl)-1-methyl-1H-imidazol-4-yl]-6,6,7,7-tetrafluoro-1-methyl-6,7-dihydro-1H-[1,4]dioxino[2,3-f]benzimidazole], the pest or weed control at 500 g/ha in assay [1] turned out to be 100%. Moreover, the pest or weed control at 100 g/ha in assay [2] and in assay [3] was 100% each time.

As for `CCS(=O)(=O)c1c(-c2nc3cc4c(cc3n2C)OC(F)(F)C(F)(F)O4)nc(-c2ccc(Br)cc2)n1C` [Example I-10, 2-[2-(4-Bromophenyl)-5-(ethylsulfonyl)-1-methyl-1H-imidazol-4-yl]-6,6,7,7-tetrafluoro-1-methyl-6,7-dihydro-1H-[1,4]dioxino[2,3-f]benzimidazole], in assay [1], the pest or weed control at 500 g/ha was determined as 100%. Also, the pest or weed control at 100 g/ha in assay [2] and in assay [3] was 100% throughout.

Consider `CCS(=O)(=O)c1c(-c2nc3cc4c(cc3n2C)OC(F)(F)C(F)(F)O4)nc(-c2ccc(C3(C(F)(F)F)CC3)cc2)n1C` [Example I-7, 2-[5-(Ethylsulfonyl)-1-methyl-2-{4-[1-(trifluoromethyl)cyclopropyl]phenyl}-1H-imidazol-4-yl]-6,6,7,7-tetrafluoro-1-methyl-6,7-dihydro-1H-[1,4]dioxino[2,3-f]benzimidazole], for which, in assay [2], the pest or weed control at 100 g/ha is 100%.

For `CCS(=O)(=O)c1c(-c2nc3cc4c(cc3n2C)OC(F)(F)C(F)(F)O4)nc(-c2ccc(-c3ccc(Br)cn3)cn2)n1C` [Example I-25], the pest or weed control at 100 g/ha in assay [3] was 100%.

In the case of `CCS(=O)(=O)c1c(-c2nc3cc4c(cc3n2C)OC(F)(F)C(F)(F)O4)nc(-c2ccc(C#N)cn2)n1C` [Example I-32, 6-[5-(Ethylsulfonyl)-1-methyl-4-(6,6,7,7-tetrafluoro-1-methyl-6,7-dihydro-1H-[1,4]dioxino[2,3-f]benzimidazol-2-yl)-1H-imidazol-2-yl]nicotinonitrile], the pest or weed control at 100 g/ha in assay [2] and in assay [3] was 100% in each case.

Regarding `CCS(=O)(=O)c1c(-c2nc3cc4c(cc3n2C)OC(F)(F)C(F)(F)O4)nc(-c2ccc(C3CC3)nc2)n1C` [Example I-18, 2-[2-(6-Cyclopropylpyridin-3-yl)-5-(ethylsulfonyl)-1-methyl-1H-imidazol-4-yl]-6,6,7,7-tetrafluoro-1-methyl-6,7-dihydro-1H-[1,4]dioxino[2,3-f]benzimidazole], in assay [1], the pest or weed control at 500 g/ha turned out to be 100%. The pest or weed control at 100 g/ha in assay [2] and in assay [3] was 100% each time.

For `CCS(=O)(=O)c1c(-c2nc3cc4c(cc3n2C)OC(F)(F)C(F)(F)O4)nc(-n2cnc(C3CC3)n2)n1C` [Example I-23, 2-[2-(3-Cyclopropyl-1H-1,2,4-triazol-1-yl)-5-(ethylsulfonyl)-1-methyl-1H-imidazol-4-yl]-6,6,7,7-tetrafluoro-1-methyl-6,7-dihydro-1H-[1,4]dioxino[2,3-f]benzimidazole], the pest or weed control at 500 g/ha in assay [1] was determined as 100%. In addition, the pest or weed control at 100 g/ha in assay [2] stood at 80%; in assay [3], 100%.

(Values after patent US20230247994A1, “HETEROCYCLENE DERIVATIVES AS PEST CONTROL AGENTS” (Bayer Aktiengesellschaft, priority 2020, published 2023).)
